The values below are quoted from earlier work in PubChem BioAssay AID1259409 (Chemical Carcinogenesis Research Information System (CCRIS), 2018).

This data set deals with rodent chemically induced tumor inhibition, incidence and multiplicity. Nature of the data set: CCRIS tumor inhibitor studies.

Take `NCCCC(N)(C(=O)O)C(F)F` (stereo not drawn): the “tumour outcome (control, treated, inhibition, significance)” value (Carcinogen: 1,2-DIMETHYLHYDRAZINE, 540-73-8, Dose [Inhibitor]: 0, 0.2% IN DRINKING WATER BEGINNING 1 D PRIOR TO CARCINOGEN TREATMENT AND CONTINUING FOR DURATION OF STUDY (STUDY DURATI, Route [Inhibitor]: ORAL, Species: RAT, Strain/Sex: SPRAGUE-DAWLEY/MALE, Target Tissue: Type of Lesion: DISTAL COLON: ADENOCARCINOMA, Dose [Carcinogen]: 20 MG/KG 1/WK FOR 20 WK, Promoter: NONE USED) is on record as 94%, 67%, 29%, p<0.01; the “tumour outcome (control, treated, inhibition, significance)” value (Carcinogen: 7,12-DIMETHYLBENZ[A]ANTHRACENE, 57-97-6, Dose [Inhibitor]: 0.3 MG IN 0.2 ML ACETONE:ETHANOL:WATER (2:1:1, V/V) 1 HR AFTER EACH PROMOTER DOSE FOR 20 WK (STUDY DURATION: 20 WK), Route [Inhibitor]: DERMAL, Species: MOUSE, Strain/Sex: CD-1/FEMALE, Target Tissue: Type of Lesion: SKIN: PAPILLOMA, Dose [Carcinogen]: 0.2 UMOL IN 0.2 ML ACETONE ONCE, Promoter: 12-O-TETRADECANOYLPHORBOL-13-ACETATE, 16561-29-8) is 97%, 61%, 37%, not calculated; the “tumour outcome (control, treated, inhibition, significance)” value (Carcinogen: 7,12-DIMETHYLBENZ[A]ANTHRACENE, 57-97-6, Dose [Inhibitor]: 0.3 MG IN 0.2 ML ACETONE:ETHANOL:WATER (2:1:1,V/V) 1 HR AFTER EACH PROMOTER DOSE FOR 20 WK (STUDY DURATION: 20 WK), Route [Inhibitor]: DERMAL, Species: MOUSE, Strain/Sex: CD-1/FEMALE, Target Tissue: Type of Lesion: SKIN: PAPILLOMA, Dose [Carcinogen]: 0.2 UMOL IN 0.2 ML ACETONE ONCE, Promoter: 12-O-TETRADECANOYLPHORBOL-13-ACETATE, 16561-29-8) is given as 84%, 63%, 25%, not calculated; the “tumour outcome (control, treated, inhibition, significance)” value (Carcinogen: 7,12-DIMETHYLBENZ[A]ANTHRACENE, 57-97-6, Dose [Inhibitor]: 1% (W/V) IN DRINKING WATER 2 D PRIOR TO 1ST PROMOTER DOSE UNTIL THE END OF EXPERIMENT (STUDY DURATION: 20 WK), Route [Inhibitor]: ORAL, Species: MOUSE, Strain/Sex: CD-1/FEMALE, Target Tissue: Type of Lesion: SKIN: PAPILLOMA, Dose [Carcinogen]: 0.2 UMOL IN 0.2 ML ACETONE ONCE, Promoter: 12-O-TETRADECANOYLPHORBOL-13-ACETATE, 16561-29-8) was 100%, 43%, 57%, not calculated; the “tumour outcome (control, treated, inhibition, significance)” value (Carcinogen: 7,12-DIMETHYLBENZ[A]ANTHRACENE, 57-97-6, Dose [Inhibitor]: 2% IN DRINKING WATER (AVERAGE DAILY INTAKE: 8.53 ML/MOUSE/D) FOR 18 WK (STUDY DURATION: 18 WK), Route [Inhibitor]: ORAL, Species: MOUSE, Strain/Sex: SENCAR/FEMALE, Target Tissue: Type of Lesion: SKIN: PAPILLOMA, Dose [Carcinogen]: 10 NMOL ONCE AT 7 WK OF AGE, Promoter: 12-O-TETRADECANOYLPHORBOL-13-ACETATE, 16561-29-8) was 92%, 81%, 12%, not calculated; the “tumour outcome (control, treated, inhibition, significance)” value (Carcinogen: 7,12-DIMETHYLBENZ[A]ANTHRACENE, 57-97-6, Dose [Inhibitor]: 3 MG IN 0.2 ML ACETONE:ETHANOL:WATER (2:1:1, V/V) 1 HR AFTER EACH PROMOTER DOSE FOR 20 WK (STUDY DURATION: 20 WK), Route [Inhibitor]: DERMAL, Species: MOUSE, Strain/Sex: CD-1/FEMALE, Target Tissue: Type of Lesion: SKIN: PAPILLOMA, Dose [Carcinogen]: 0.2 UMOL IN 0.2 ML ACETONE ONCE, Promoter: 12-O-TETRADECANOYLPHORBOL-13-ACETATE, 16561-29-8) is on record as 68%, 47%, 31%, not calculated. Further, the “tumour outcome (control, treated, inhibition, significance)” value is reported as 92%, 77%, 16%, not calculated (Carcinogen: 7,12-DIMETHYLBENZ[A]ANTHRACENE, 57-97-6, Dose [Inhibitor]: 5 MG, 2 HR PRIOR TO EACH BIWEEKLY PROMOTER DOSE FOR 18 WK (STUDY DURATION: 18 WK), Route [Inhibitor]: INTRAPERITONEAL, Species: MOUSE, Strain/Sex: SENCAR/FEMALE, Target Tissue: Type of Lesion: SKIN: PAPILLOMA, Dose [Carcinogen]: 10 NMOL AT 7 WK OF AGE ONCE 18 WK, Promoter: 12-O-TETRADECANOYLPHORBOL-13-ACETATE, 16561-29-8); 83%, 63%, 24%, not calculated (Carcinogen: 7,12-DIMETHYLBENZ[A]ANTHRACENE, 57-97-6, Dose [Inhibitor]: 6 MG IN 0.9% NACL 1 HR AFTER EACH PROMOTER DOSE (STUDY DURATION: 20 WK), Route [Inhibitor]: INTRAPERITONEAL, Species: MOUSE, Strain/Sex: CD-1/FEMALE, Target Tissue: Type of Lesion: SKIN: PAPILLOMA, Dose [Carcinogen]: 0.2 UMOL IN 0.2 ML ACETONE ONCE, Promoter: 12-O-TETRADECANOYLPHORBOL-13-ACETATE, 16561-29-8); 83%, 60%, 28%, not calculated (Carcinogen: 7,12-DIMETHYLBENZ[A]ANTHRACENE, 57-97-6, Dose [Inhibitor]: 18 MG IN 0.9% NACL 1 HR AFTER EACH PROMOTER DOSE (STUDY DURATION: 20 WK), Route [Inhibitor]: INTRAPERITONEAL, Species: MOUSE, Strain/Sex: CD-1/FEMALE, Target Tissue: Type of Lesion: SKIN: PAPILLOMA, Dose [Carcinogen]: 0.2 UMOL IN 0.2 ML ACETONE ONCE, Promoter: 12-O-TETRADECANOYLPHORBOL-13-ACETATE, 16561-29-8); 78%, 45%, 42%, not calculated (Carcinogen: 7,12-DIMETHYLBENZ[A]ANTHRACENE, 57-97-6, Dose [Inhibitor]: 20 MG 2/WK OR 16 WK TOGETHER WITH EACH MEZEREIN TREATMENT BEGINNING 3 WK POST CARCINOGEN DOSE (STUDY DURATION: 18 WK), Route [Inhibitor]: INTRAPERITONEAL, Species: MOUSE, Strain/Sex: SENCAR/FEMALE, Target Tissue: Type of Lesion: SKIN: PAPILLOMA, Dose [Carcinogen]: 10 NMOL ONCE FOLLOWED ONE WK LATER BY PROMOTER, Promoter: 12-O-TETRADECANOYLPHORBOL-13-ACETATE, 16561-29-8, MEZERIN, 34807-41-5, Promoter: 12-O-TETRADECANOYLPHORBOL-13-ACETATE, 16561-29-8, MEZERIN, 34807-41-5); 78%, 78%, 0%, not significant (Carcinogen: 7,12-DIMETHYLBENZ[A]ANTHRACENE, 57-97-6, Dose [Inhibitor]: 20 MG 2/WK TOGETHER WITH EACH PROMOTER TREATMENT BEGINNING 1 WK POST CARCINOGEN DOSE (STUDY DURATION: 18 WK), Route [Inhibitor]: INTRAPERITONEAL, Species: MOUSE, Strain/Sex: SENCAR/FEMALE, Target Tissue: Type of Lesion: SKIN: PAPILLOMA, Dose [Carcinogen]: 10 NMOL ONCE, Promoter: 12-O-TETRADECANOYLPHORBOL-13-ACETATE, 16561-29-8, MEZERIN, 34807-41-5, Promoter: 12-O-TETRADECANOYLPHORBOL-13-ACETATE, 16561-29-8, MEZERIN, 34807-41-5); 92%, 84%, 9%, not calculated (Carcinogen: 7,12-DIMETHYLBENZ[A]ANTHRACENE, 57-97-6, Dose [Inhibitor]: 20 MG 2 HR PRIOR TO EACH BIWEEKLY PROMOTER DOSE FOR 18 WK (STUDY DURATION: 18 WK), Route [Inhibitor]: INTRAPERITONEAL, Species: MOUSE, Strain/Sex: SENCAR/FEMALE, Target Tissue: Type of Lesion: SKIN: PAPILLOMA, Dose [Carcinogen]: 10 NMOL ONCE AT 7 WK OF AGE, Promoter: 12-O-TETRADECANOYLPHORBOL-13-ACETATE, 16561-29-8). Further, the “tumour outcome (control, treated, inhibition, significance)” value (Carcinogen: BETA IRRADIATION, Dose [Inhibitor]: 0, 1% IN DRINKING WATER DURING IRRADIATION EXPOSURE (STUDY DURATION: 950 D), Route [Inhibitor]: ORAL, Species: MOUSE, Strain/Sex: ICR/FEMALE, Target Tissue: Type of Lesion: SKIN: TUMOR, Dose [Carcinogen]: 3 GY/MIN 3/WK UNTIL EMERGENCE OF TUMORS, Promoter: NONE USED) was 100%, 100%, 0%, not significant.
